From BigSolDB 2.1

Cc1cnc(C(=O)O)c[n+]1[O-]
solubility (mole fraction)
Conditions	283.15 K	288.15 K	293.15 K	298.15 K	303.15 K	308.15 K	313.15 K	318.15 K
in acetone	0.00157	0.00176	0.00198	0.00222	0.00249	0.00279	0.00317	0.00362
in acetonitrile	0.00057	0.000757	0.00097	0.00118	0.00142	0.00172	0.00205	0.00249
in methanol	0.00211	0.00244	0.00285	0.00328	0.00381	0.00443	0.00517	0.00598
in water	0.00198	0.00227	0.00265	0.0031	0.0036	0.00426	0.00498	0.00579
